In patent US12544382B2, “2, 4, 6-tri-substituted pyrimidine compound as ATR kinase inhibitor” (BEIJING TIDE PHARMACEUTICAL CO., LTD., priority 2019, dated 2026):
pIC50: −log10 of the molar value.

Columns and labels:
[1] = In vivo pharmacokinetics assay in mice; conditions: mouse; male ICR mice, oral gavage 10 mg/kg, plasma
Experimental: The in vivo pharmacokinetics of the compounds was studied.
Male ICR mice (3 in each group) were orally administered by gavage with a dose of 10 mg/kg. Plasma samples were collected before (0 h) and after administration (0.25, 0.5, 1, 2, 4, 6, 8, 24 h), and the collected samples were analyzed by LC/MS and data were collected. The collected analytical data were used to calculate the relevant pharmacokinetic parameters by Analyst v1.6.2 (AB Applied Biosystems Company, USA).

ATR kinase = ATR kinase (Homo sapiens (Human), UniProt Q13535); assay: ATR kinase activity assay (time-resolved fluorescence, p53 substrate phosphorylation); type: biochemical
Experimental: Biotinylated protein derived from p53 (Eurofins, art. No.: 14-952) was phosphorylated with ATR kinase. The amount of phosphorylated protein was determined by time-resolved fluorescence in this assay. The amount of phosphorylated protein was detected by anti-p53-phospho-(serine 15)-K-specific antibody (Cisbio, art. No.: 61GSTDLA) and d2 labeled anti-GST antibody (Cisbio, art. No. 61P08KAE). Before the experiment, the following working solution was prepared as required: 1× reaction buffer (20 mM HEPES PH8.0, 1% glycerol, 0.01% Brij-35), dilution buffer (20 mM HEPES PH8.0, 1% glycerol, 0.01% Brij-35, 5 mM DTT and 1% BSA), stop solution (20 mM HEPES PH8.0, 1% glycerol, 0.01% Brij-35, 250 mM EDTA), detection buffer (50 mM HEPES pH7.0, 150 mM NaCl, 267 mM KF, 0.1% sodium cholate, 0.01% Tween-20, 0.0125% sodium azide). The reagents used above are purchased from Sigma or Invitrogen, except for those where the manufacturer was mentioned.
Operations are as follows:
4× gradient dilution of compound solutions was prepared with 1× reaction buffer to obtain 9 compound solutions of different concentrations, and 2.5 μL 4× gradient dilution of compound solutions was added to a 384-well analysis plate (784075, Greiner). 4× p53 substrate working solution (40 nM) was prepared with 1× reaction buffer, and 2.5 μL 4× p53 substrate working solution was added to the 384-well analysis plate. 4×ATR/ATRIP working solution (12.8 ng/μL) was prepared with dilution buffer, and 2.5 μL 4×pATR/ATRIP working solution was added to the 384-well analysis plate. 4×ATP working solution (2 mM) was prepared with deionized water, 2.5 μL 4×ATP working solution was added to the 384-well analysis plate, and incubated at room temperature in dark for 30 minutes. 5 μL stop solution was added to the 384 analysis plate. Finally, 5 μL test mixture (0.084 ng/μL Anti-phospho-p53(ser15)-K and 5 ng/μL Anti-GST-d2) was added to the 384 well analysis plate, incubated overnight at room temperature, and the fluorescence signal was detected with ENVISION (Perkinelmer) instrument (excitation wavelength: 320 nm, emission wavelength: 665 nm and 615 nm). The inhibition rate in each well was calculated by the fluorescence intensity value of each hole: ER (Emission Ratio)=(Fluorescence intensity at 665 nm/Fluorescence intensity at 615 nm); inhibition rate=(ER positive-ER test compound)/(ER positive-ER negative)×100%, the IC50 value of compounds were calculated by standard parameter fitting software (GraphPad Prism 6.0).

[2] = system: TOV21G (ovarian cancer) cells; assay: In vitro cell proliferation inhibition assay (CellTiter-Glo), TOV21G; type: cell-based, human; conditions: 120 hours
Experimental: (§1) By detecting the effect of compound on cell activity in vitro in the tumor cell lines TOV21G (ovarian cancer) and MV4-11 (leukemia), the effect of compound inhibiting cell proliferation was studied in this assay.
(§2) TOV21G cells and MV4-11 cells were purchased from American Type Culture Collection (ATCC).
TOV21G cells were cultured in MCDB105/M199 medium (containing 15% […]), and used for testing when the cell confluence reaches 85% or more. Each well of a 96-well culture plate was inoculated with about 1000 cells, cultured for 24 hours, and treated with different concentrations (0-10 μM) of compound solution to be tested in triplex. Blank wells (contains medium only) and control wells (seeded cells was not treated with drug) were set. Cells were cultured for 120 hours, 40 μL Cell Titer-Glo solution (Promega, #G7573) were added to each well, incubated with shaking for 20 min in the dark, 100 μL solution was transferred from each well to a 96-well white plate (Corning, #3917), and the luminescence value was read by Biotek Synergy H1 multifunctional microplate reader.

MV4-11 (leukemia) cells = assay: In vitro cell proliferation inhibition assay (CellTiter-Glo), MV4-11; type: cell-based, human; conditions: MV4-11 cells
Experimental: as §1, §2
MV-4-11 cells were cultured in IMDM medium (containing 20% FBS), each well of a 96-well culture plate was inoculated with about 10000 cells, and treated with different concentrations (0-10 μM) of compounds to be tested in triplex. Blank wells (containing medium only) and control wells (inoculated with cells but not treated with drug) were set. Cells were cultured for 120 hours, 40 μL Cell Titer-Glo solution was added to each well, incubated with shaking for 20 min in the dark, 100 μL solution was transferred from each well to a 96-well white plate, and the luminescence value was read by Biotek Synergy H1 multifunctional microplate reader. Inhibition rate (%)=100%×(control well−test well)/(control well−blank well)

[3] = In vitro liver microsomal stability assay, human; type: in vitro ADME; conditions: human liver microsomes, final concentration 2.0 nM, with or without NADPH, within 60 minutes; read-out: Human liver microsomes t1/2
Experimental: (§3) Experiments on the stability of the compound of the present disclosure in liver microsomes were performed. The compounds to be tested (final concentration: 2.0 nM) were co-incubated with human/mouse liver microsomes with or without NADPH, and the concentration of compounds in the incubation supernatant was detected within 60 minutes.

[4] = In vitro liver microsomal stability assay, mouse; type: in vitro ADME; conditions: mouse liver microsomes, final concentration 2.0 nM, with or without NADPH, within 60 minutes; read-out: Mouse liver microsomes t1/2
Experimental: as §3

ATR kinase, sequence (Q13535 whole entry): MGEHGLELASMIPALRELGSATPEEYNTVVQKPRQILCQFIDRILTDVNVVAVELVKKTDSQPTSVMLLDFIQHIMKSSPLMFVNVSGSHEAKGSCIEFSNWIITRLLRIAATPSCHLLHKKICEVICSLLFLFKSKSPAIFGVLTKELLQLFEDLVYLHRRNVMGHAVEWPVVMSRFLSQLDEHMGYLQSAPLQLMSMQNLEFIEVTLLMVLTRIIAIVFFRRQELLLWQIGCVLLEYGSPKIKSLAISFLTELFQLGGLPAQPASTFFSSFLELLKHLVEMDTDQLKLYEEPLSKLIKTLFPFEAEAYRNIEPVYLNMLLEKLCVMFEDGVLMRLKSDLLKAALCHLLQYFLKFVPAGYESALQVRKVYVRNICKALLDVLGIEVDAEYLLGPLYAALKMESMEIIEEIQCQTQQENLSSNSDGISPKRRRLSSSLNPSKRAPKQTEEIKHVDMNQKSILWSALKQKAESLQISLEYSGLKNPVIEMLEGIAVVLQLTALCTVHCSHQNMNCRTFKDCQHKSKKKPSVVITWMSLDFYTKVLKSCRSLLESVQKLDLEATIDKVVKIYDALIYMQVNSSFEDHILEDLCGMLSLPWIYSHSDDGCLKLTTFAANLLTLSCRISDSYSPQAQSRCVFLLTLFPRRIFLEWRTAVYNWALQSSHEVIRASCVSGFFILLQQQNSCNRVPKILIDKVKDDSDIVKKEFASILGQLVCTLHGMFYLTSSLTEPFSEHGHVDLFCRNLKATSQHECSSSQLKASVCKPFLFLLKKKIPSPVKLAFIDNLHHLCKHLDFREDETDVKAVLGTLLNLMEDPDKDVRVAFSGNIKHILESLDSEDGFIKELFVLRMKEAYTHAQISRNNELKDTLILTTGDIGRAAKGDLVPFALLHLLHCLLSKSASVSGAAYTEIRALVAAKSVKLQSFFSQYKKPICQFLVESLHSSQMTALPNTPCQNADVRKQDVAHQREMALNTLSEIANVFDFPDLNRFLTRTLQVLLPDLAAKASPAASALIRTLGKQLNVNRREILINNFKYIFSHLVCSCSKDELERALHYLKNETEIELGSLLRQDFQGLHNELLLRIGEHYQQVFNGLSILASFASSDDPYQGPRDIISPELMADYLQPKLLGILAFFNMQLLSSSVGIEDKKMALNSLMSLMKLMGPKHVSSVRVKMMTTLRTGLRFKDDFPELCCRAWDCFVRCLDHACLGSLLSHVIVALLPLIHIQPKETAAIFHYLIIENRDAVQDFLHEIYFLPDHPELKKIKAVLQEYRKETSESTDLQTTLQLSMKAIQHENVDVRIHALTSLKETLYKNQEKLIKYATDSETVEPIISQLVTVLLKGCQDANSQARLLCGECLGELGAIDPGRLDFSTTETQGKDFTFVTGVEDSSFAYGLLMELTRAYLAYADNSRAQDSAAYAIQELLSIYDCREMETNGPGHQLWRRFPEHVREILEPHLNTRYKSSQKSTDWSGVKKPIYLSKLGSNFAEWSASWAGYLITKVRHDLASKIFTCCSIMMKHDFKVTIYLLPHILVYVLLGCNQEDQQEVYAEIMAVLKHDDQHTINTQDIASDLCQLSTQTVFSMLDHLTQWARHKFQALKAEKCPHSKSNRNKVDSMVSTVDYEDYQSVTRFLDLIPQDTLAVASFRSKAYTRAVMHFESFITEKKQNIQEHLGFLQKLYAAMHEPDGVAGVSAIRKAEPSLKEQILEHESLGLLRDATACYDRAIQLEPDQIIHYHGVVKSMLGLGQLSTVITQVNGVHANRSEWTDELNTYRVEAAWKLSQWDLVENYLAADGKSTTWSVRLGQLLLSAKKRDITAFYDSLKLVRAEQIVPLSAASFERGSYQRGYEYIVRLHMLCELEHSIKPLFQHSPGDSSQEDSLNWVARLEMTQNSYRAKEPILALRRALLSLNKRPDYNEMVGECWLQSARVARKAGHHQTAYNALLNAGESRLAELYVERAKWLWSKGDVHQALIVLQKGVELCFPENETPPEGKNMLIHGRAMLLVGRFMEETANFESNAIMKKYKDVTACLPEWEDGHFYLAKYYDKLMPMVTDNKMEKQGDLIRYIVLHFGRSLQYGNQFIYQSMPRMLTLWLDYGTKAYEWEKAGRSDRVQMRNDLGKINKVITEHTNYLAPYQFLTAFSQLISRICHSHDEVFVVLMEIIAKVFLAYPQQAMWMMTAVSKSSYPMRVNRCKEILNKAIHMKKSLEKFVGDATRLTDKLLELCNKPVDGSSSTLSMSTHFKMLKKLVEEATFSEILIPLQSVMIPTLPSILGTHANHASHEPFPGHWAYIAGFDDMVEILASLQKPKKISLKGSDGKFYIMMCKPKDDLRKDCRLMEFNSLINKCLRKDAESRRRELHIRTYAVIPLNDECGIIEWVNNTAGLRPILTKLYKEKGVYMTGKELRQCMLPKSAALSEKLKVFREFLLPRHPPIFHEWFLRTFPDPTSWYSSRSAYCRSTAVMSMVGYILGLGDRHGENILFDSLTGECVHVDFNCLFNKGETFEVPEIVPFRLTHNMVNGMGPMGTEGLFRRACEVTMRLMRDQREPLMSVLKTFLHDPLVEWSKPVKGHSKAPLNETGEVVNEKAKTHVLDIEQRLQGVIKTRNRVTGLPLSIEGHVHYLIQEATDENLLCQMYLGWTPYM
ATR kinase, sequence (Q8WXE1 whole entry partner): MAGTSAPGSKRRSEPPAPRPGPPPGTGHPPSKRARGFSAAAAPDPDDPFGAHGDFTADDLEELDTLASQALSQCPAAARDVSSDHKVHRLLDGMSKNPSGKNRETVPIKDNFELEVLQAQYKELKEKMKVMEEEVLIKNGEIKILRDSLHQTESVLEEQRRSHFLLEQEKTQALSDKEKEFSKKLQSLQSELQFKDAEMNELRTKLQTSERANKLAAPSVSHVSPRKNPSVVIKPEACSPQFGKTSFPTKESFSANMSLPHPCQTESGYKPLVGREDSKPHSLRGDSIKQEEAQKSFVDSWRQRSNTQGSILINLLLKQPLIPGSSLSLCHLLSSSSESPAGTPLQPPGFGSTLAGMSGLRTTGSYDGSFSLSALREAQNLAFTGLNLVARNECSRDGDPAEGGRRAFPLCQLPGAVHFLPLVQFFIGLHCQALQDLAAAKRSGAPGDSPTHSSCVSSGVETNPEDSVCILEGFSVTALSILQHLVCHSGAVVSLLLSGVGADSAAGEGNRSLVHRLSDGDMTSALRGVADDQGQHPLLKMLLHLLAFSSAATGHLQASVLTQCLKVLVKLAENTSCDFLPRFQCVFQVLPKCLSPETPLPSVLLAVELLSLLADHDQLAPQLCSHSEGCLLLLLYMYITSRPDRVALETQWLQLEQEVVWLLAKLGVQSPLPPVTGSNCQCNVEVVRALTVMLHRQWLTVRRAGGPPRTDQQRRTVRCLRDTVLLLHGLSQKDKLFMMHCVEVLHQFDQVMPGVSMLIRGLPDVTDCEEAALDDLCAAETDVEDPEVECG

Row | Compound | pIC50 (ATR kinase) | pIC50 ([2]; Homo sapiens) | pIC50 (MV4-11 (leukemia) cells; Homo sapiens, MV4-11, 120 h) | pIC50 [2] | pIC50 (MV4-11 (leukemia) cells; 120 hours) | further results
1 | Cc1nn(C2CCNCC2)c(C(F)(F)F)c1-c1cc(N2CCOC[C@H]2C)nc(-c2cc(F)cc3[nH]ccc23)n1 [Compound D28] | > 9.00 | 6.55 | 6.64 | – | – | AUC [1]: 2160 ng·h/mL; Cmax [1]: 199 ng/mL; Tmax [1]: 4.7 h; half-life [1]: 3.9 h
2 | Cc1c(-c2cc(N3CCOC[C@H]3C)nc(-c3ccnc4[nH]ccc34)n2)c(C(F)(F)F)nn1C1CCCNC1 (some centres unmarked) [Compound D12] | 8.52 | 6.55 | 6.54 | – | – | –
3 | CNc1nc2ccccc2n1-c1nc(-c2c(C)nn(CC3CCCNC3)c2C(F)(F)F)cc(N2CCOC[C@H]2C)n1 (some centres unmarked) [Compound D40] | 8.30 | 6.14 | 6.24 | – | – | –
4 | COc1c(-c2cc(N3CCOC[C@H]3C)nc(-c3ccnc4[nH]ccc34)n2)c(C(F)(F)F)nn1C1CCN(C)CC1 [Compound D14] | 7.55 | 5.92 | 6.09 | – | – | –
5 | CNc1nc2ncccc2n1-c1nc(-c2c(C)nn(C3CCNCC3)c2C(F)(F)F)cc(N2CCOC[C@H]2C)n1 [Compound D26] | 7.92 | – | – | 5.45 | 5.51 | –
6 | Cc1nn(C2CCNCC2)c(C(F)(F)F)c1-c1cc(N2CCOC[C@H]2C)nc(-n2cnc3cc(F)ccc32)n1 [Compound D30a] | 7.80 | – | – | 5.68 | 6.39 | –
7 | Cc1nn(C[C@H]2CCCN2)c(C(F)(F)F)c1-c1cc(N2CCOC[C@H]2C)nc(-c2cc(F)cc3[nH]ccc23)n1 [Compound D53] | 8.40 | – | – | 6.15 | 6.21 | –
8 | Cc1nn(C2CCN(C)CC2)c(C)c1-c1cc(N2CCOC[C@H]2C)nc(-c2ccnc3[nH]ccc23)n1 [Compound D4] | 8.22 | – | – | 6.48 | 6.72 | –
9 | Cc1nn(C2CCNCC2)c(C(F)(F)F)c1-c1cc(N2CCOC[C@H]2C)nc(-n2cnc3ccc(F)cc32)n1 [Compound D30b] | 7.27 | – | – | 5.65 | 6.48 | –
10 | Cc1nn(C[C@@H]2CCCN2)c(C(F)(F)F)c1-c1cc(N2CCOC[C@H]2C)nc(-c2cc(F)cc3[nH]ccc23)n1 [Compound D52] | 8.70 | – | – | 6.43 | 6.23 | –
11 | CCNc1nc2cc(F)ccc2n1-c1nc(-c2c(C)nn(C3CCNCC3)c2C(F)(F)F)cc(N2CCOC[C@H]2C)n1 [Compound D23] | 8.10 | – | – | 6.24 | 6.16 | –
12 | Cc1nn(C2CCNCC2)c(C(F)(F)F)c1-c1cc(N2CCOC[C@H]2C)nc(-c2ccnc3[nH]ccc23)n1 [Compound D1] | 8.30 | 6.59 | 6.92 | – | – | half-life at 2 nM [3]: 5.63 h; half-life at 2 nM [4]: 1.03 h
13 | Cc1nn(C(=O)N2CCNCC2)c(C)c1-c1cc(N2CCOC[C@H]2C)nc(-c2cc(F)cc3[nH]ccc23)n1 [Compound D55] | 8.52 | – | – | 6.72 | 6.66 | –
14 | CNc1nc2cc(F)ccc2n1-c1nc(-c2c(C)nn(C3CCNCC3)c2C(F)(F)F)cc(N2CCOC[C@H]2C)n1 [Compound D10] | 8.52 | 6.42 | 6.48 | – | – | –
15 | Cc1nn(C2CCNCC2)c(C(F)(F)F)c1-c1cc(N2CCOC[C@H]2C)nc(-n2c(NC(=O)C3CC3)nc3ccccc32)n1 [Compound D21] | 8.70 | 6.85 | 6.72 | – | – | –
16 | CNc1nc2ccccc2n1-c1nc(-c2c(C(F)(F)F)nn(C3CCNCC3)c2C)cc(N2CCOC[C@H]2C)n1 [Compound D56] | 8.05 | – | – | 6.36 | 6.49 | –
17 | Cc1nn(C2CCNCC2)c(C(F)(F)F)c1-c1cc(N2CCOC[C@H]2C)nc(-n2c(NC(=O)C3CC3)nc3ccccc32)n1 [Compound D38] | 8.30 | – | – | 6.85 | 6.64 | –
18 | Cc1c(-c2cc(N3CCOC[C@H]3C)nc(-c3ccnc4[nH]ccc34)n2)c(C(F)(F)F)nn1C1CCCNC1 (single isomer, unassigned) [Compound D13] | > 9.00 | 6.10 | 6.60 | – | – | –
19 | CNc1nc2cc(F)ccc2n1-c1nc(-c2c(C)nn(C3CCNCC3)c2C(F)(F)F)c(F)c(N2CCOC[C@H]2C)n1 [Compound D27] | 8.10 | – | – | 6.14 | 6.01 | –
20 | Cc1nn(C2CCNCC2)c(C(F)(F)F)c1-c1cc(N2CCOC[C@H]2C)nc(-c2cccc3[nH]ccc23)n1 [Compound D17] | 9.00 | 6.64 | 6.85 | – | – | half-life at 2 nM [3]: 5.05 h; half-life at 2 nM [4]: 2.83 h
21 | CNc1nc2ccccc2n1-c1nc(-c2c(C)nn(C3CCNCC3)c2C(F)(F)F)cc(C23CCOCC2C3)n1 (centres unmarked) [Compound D48] | 8.70 | – | – | 6.26 | 6.70 | –
22 | Cc1nn(C2CCNCC2(F)F)c(C)c1-c1cc(N2CCOC[C@H]2C)nc(-c2ccnc3[nH]ccc23)n1 (some centres unmarked) [Compound D57] | 7.80 | – | – | 6.39 | 6.66 | –
23 | Cc1nn(C2CCNCC2)c(C(F)(F)F)c1-c1cc(N2CCOC[C@H]2C)nc(-c2cncc3[nH]ccc23)n1 [Compound D19] | 9.00 | 6.96 | 7.10 | – | – | –
24 | CNc1nc2cc(F)ccc2n1-c1nc(-c2c(C)nn(CC3CCCNC3)c2C(F)(F)F)cc(N2CCOC[C@H]2C)n1 (some centres unmarked) [Compound D39] | 8.52 | 6.07 | 5.91 | – | – | –
25 | Cc1nn(C2CCNCC2)c(C(F)(F)F)c1-c1cc(N2CCOC[C@H]2C)nc(-n2c(N)nc3ccccc32)n1 [Compound D6] | > 9.00 | 6.62 | 6.77 | – | – | –
26 | CNc1nc2ccccc2n1-c1nc(-c2c(C(F)(F)F)nn(CS(C)(=O)=O)c2C)cc(N2CCOC[C@H]2C)n1 [Compound D44] | 7.47 | 6.10 | 6.17 | – | – | –
27 | Cc1nn(C2CCNCC2)c(C(F)(F)F)c1-c1cc(N2CCOC[C@H]2C)nc(-n2c(N)nc3cc(F)ccc32)n1 [Compound D7] | 9.00 | 6.34 | 6.51 | – | – | –
28 | Cc1nn([C@@H]2CCNCC2(F)F)c(C)c1-c1cc(N2CCOC[C@H]2C)nc(-c2cc(F)cc3[nH]ccc23)n1 [Compound D54b] | 7.89 | 6.36 | 6.59 | – | – | –
